The text below walks through data of patent publication EP4741379A1, “CLASS OF PROGRAMMED CELL DEATH INHIBITORS, PREPARATION METHOD THEREFOR AND USE THEREOF” (SHANGHAI INSTITUTE OF ORGANIC CHEMISTRY, CHINESE ACADEMY OF …, priority 2023, dated 2025).

Data set [1] deals with FADD-deficient Jurkat cells. Nature of the data set: TNF-induced programmed necrosis of FADD-deficient Jurkat cells (Cell Titer-Glo viability). It is filed as cell-based, human. The settings on record: for EC50: Homo sapiens, Jurkat.
Another data set deals with L929 cells. Nature of the data set: TNF-induced programmed necrosis of L929 cells (Cell Titer-Glo viability). It is filed as cell-based, mouse. The settings on record: Mus musculus, L929. A general note: ATP-based viability assays read luminescence as a measure of living cells.
In a further data set the target is T1, RIPK1 (1-330) protein (Homo sapiens, UniProt Q13546).
T1 construct: test effects of the compound QY-18-26 on kinase activity of RIPK1 (1-330) protein
T1 sequence (Q13546 1-330): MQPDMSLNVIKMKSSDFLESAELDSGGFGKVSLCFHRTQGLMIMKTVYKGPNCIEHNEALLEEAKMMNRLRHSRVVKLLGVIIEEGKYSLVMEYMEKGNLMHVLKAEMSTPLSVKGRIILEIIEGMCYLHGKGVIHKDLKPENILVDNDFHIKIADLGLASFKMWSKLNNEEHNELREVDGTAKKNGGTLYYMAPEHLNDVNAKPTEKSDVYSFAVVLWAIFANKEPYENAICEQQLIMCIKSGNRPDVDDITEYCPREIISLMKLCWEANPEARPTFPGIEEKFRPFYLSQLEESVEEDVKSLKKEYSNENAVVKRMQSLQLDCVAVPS
The data set is described as follows: RIPK1 kinase activity (ADP-Glo). The settings on record: RIPK1 (1-330) 2 µM, 37°C, 2 hours; read-out: effective half-maximal inhibitory concentration. It is filed as biochemical. The procedure:
A known clinical RIPK1 inhibitor SAR443122 was used as a control.
Method: Into a 384-well plate, RIPK1 (1-330) protein with a final concentration of 2 µM and ATP with a corresponding concentration (in 1X kinase buffer) with a final concentration of 5 µL were added. At least 3 replicates were set for each group and reacted at 37°C for 2 hours. 5 µL of ADP-Glo reagent was added to stop the kinase reaction and remove any remaining ATP in the reaction system. The plate was incubated at room temperature for 40 minutes, added with 10 µL of Kinase Detection Reagent, which was used to convert ADP to ATP and introduce luciferase and luciferin to detect ATP in the system, and reacted at room temperature for 1 hour. Luminescence was measured using a 7500 Fast Real-Time PCR System. IC50 values of compounds in inhibiting the kinase reaction were calculated using Prism GraphPad statistical software.
Background: In ADP-Glo the light output rises with the ADP produced.

A short description of data set [2]: Pharmacokinetic properties in mice. It is filed as in vivo. As to the method: A biological test protocol was adopted to test drug metabolism of the compound in living mice. To verify the pharmacokinetic properties of the compounds of the present disclosure in vivo, the representative compound QY-18-26 was selected. Single administration via oral gavage (PO, 10 mg/kg) or intravenous injection (IV, 1 mg/kg) was used to test the pharmacokinetic properties of the compound in mice (n = 3).

Data set [3] is described as follows: Brain penetration (brain/plasma drug concentrations) in mice. It is filed as in vivo. As to the method:
(§1) A biological test protocol was adopted to test brain/plasma drug concentrations of the compound in living mice and rats. To verify the brain penetration properties of the compounds of the present disclosure in vivo, a representative compound QY-18-26 was selected. Single administration via oral gavage (PO, 10 mg/kg) or intravenous injection (IV, 2 mg/kg) was used to test brain/plasma drug concentrations of the compound in mice (n = 3) at different time points. At the same time, single administration via oral gavage (PO, 5 mg/kg) was used to test brain/plasma drug concentrations in rats (n = 3) at different time points.

A short description of data set [4]: Brain penetration (brain/plasma drug concentrations) in rats. The format is in vivo. As to the method: as §1
Data set [5] has as its system TNFα-induced systemic inflammatory response syndrome. Nature of the data set: TNFα-induced systemic inflammatory response syndrome in mice. The format is in vivo. The settings on record: oral gavage 1 mg/kg, 20 minutes before TNFα tail vein injection. An excerpt:
A biological test protocol was adopted as follows: systemic inflammatory response syndrome (SIRS), also known as an inflammatory storm, refers to a nonspecific systemic inflammatory response caused by severe infections, multiple trauma, burns, ischemia-reperfusion, acute pancreatitis, and other infectious or non-infectious injuries. Under this condition, a large number of inflammatory factors are released, and in severe cases, the body loses control over the inflammatory response, leading to multiple organ failure and even death. Tail vein injection of tumor necrosis factor TNFα can induce systemic inflammatory response syndrome in mice, causing a drop in body temperature and death of mice. Effects of the representative compound QY-18-26 on TNFα-induced systemic inflammatory response syndrome were tested by monitoring changes in body temperature and death in mice. A known RIPK1 inhibitor Nec-1s was used as a control.
Method: The compound to be tested was dissolved in 0.5% carboxymethyl cellulose at the required concentration one day in advance and sonicated overnight. […] Body temperature changes of mice were monitored using an infrared thermometer after injection. Effects of the compound were calculated using Prism GraphPad statistical software.

The mark [6] stands for this setting: single dose, PO 10 mg/kg or IV 1 mg/kg.

Where two headings read alike, the source gives them in different places.

For the compound `C[C@H](NC(=O)c1nnn(C)c1Cc1ccccc1)c1ccc(C#Cc2ccccn2)cc1` [QY-18-26, (S)-5-benzyl-1-methyl-N-(1-(4-(pyridin-2-ylethynyl)phenyl)ethyl)-1H-1,2,3-triazole-4-formamide], the EC50 is < 0.01 nM in data set [1] (stimulation with TNFα + SM164, read-out: EC50 (nM) FADD^-/- Jurkat cells (human-derived) TNFα+ SM164); < 0.01 nM in data set [1] (stimulation with TNFα alone, read-out: EC50 (nM) FADD^-/- Jurkat cells (human-derived) TNFα); < 0.01 nM with L929 cells (stimulation with TNFα + SM164, read-out: EC50 (nM) L929 cells (mouse-derived) TNFα+ SM164); < 0.01 nM in the data set on L929 cells (stimulation with TNFα alone, read-out: EC50 (nM) L929 cells (mouse-derived) TNFα). For the same compound, in data set [1] (TNFα alone or TNFα + SM164, human derived FADD-deficient Jurkat cells), the “programmed necroptosis inhibitory activity compared to SAR443122” value is “stronger”. At RIPK1 (1-330) protein, the IC50 is 6400 pM. Also, in data set [2] (oral gavage 10 mg/kg, for most of the 24-hour period), the plasma concentration is on record as > 5 ng/mL. For the same compound, the “bioavailability (F)” value in data set [2] (setting [6]) is recorded as “very high”. For the same compound, in data set [2] (setting [6]), the “exposure (AUC)” value was “very high”. In data set [2] (setting [6]), the “maximum plasma concentration (Cmax)” value is recorded as “very high”. For the same compound, the “time to peak concentration” value in data set [2] (setting [6]) is recorded as “rapidly reached a peak concentration”. The brain-plasma distribution entry in data set [3] (at 4 hours) and in data set [4] (at 4 hours) was “remained stable” in each case. For the same compound, the Kp is ~0.4 in data set [3] (mouse, brain, single dose PO 10 mg/kg or IV 2 mg/kg, read-out: concentration in the brain as share of the concentration in plasma) and ~0.4 in data set [4] (rat, brain, single dose PO 5 mg/kg, read-out: concentration in the brain as share of the concentration in plasma). In addition, the brain drug concentration in data set [3] (single dose PO 10 mg/kg or IV 2 mg/kg) and in data set [4] (single dose PO 5 mg/kg) was > 5 ng/g in each case. For the same compound, in data set [5], the “effect on TNFα-induced body temperature drop, inflammatory response, and death” value is given as “effectively counteract”.
